Earlier results on one compound are cited in US20090163510A1 (Bristol-Myers Squibb Company, priority 2005, published 2009).

In the series the test system is CML. The settings on record: CML patients, Kantarjian et al.

Structures can show the parent of a compound that is named as a salt. Where two headings read alike, the source gives them in different places.

Consider `Cc1ccc(NC(=O)c2ccc(CN3CCN(C)CC3)cc2)cc1Nc1nccc(-c2cccnc2)n1` [imatinib, Imatinib mesylate], for which the “estimated 2-year incidence of resistance” value is 80% (blastic phase) and 10% (chronic phase post-interferon failure).
